Legend:
Caco-2 cells = experiment: bidirectional Caco-2 permeability assay; assay type: in vitro ADME; conditions: for Papp Replicate 1 / Papp Replicate 2: 120 min; for membrane permeability (Caco-2), in words: bidirectional Caco-2 assay
Method: (§1) Bidirectional Caco-2 Permeability Assay (provided by Cyprotex Discovery Ltd; Cheshire, UK)19 Following a standard Cyprotex procedure, Caco-2 cells (ATCC), used at passages 40–60, were seeded nt ranswe inserts at a densit f × ⁵ ce s/cm² and maintained in with media changes carried out every 2–3 days. Permeability assays were performed between days 18–22 post-seedin . pr cedures were c nducted at ° in a humidified incu at r with O₂. On the day of the assay, monolayers were prepared by rinsing both the apical and basolateral compartments with pre-warmed anks’ a anced a t uti n at the desired pH and incubated with HBSS on both sides for 30 minutes to equilibrate the compartments. The dosing solutions were obtained by diluting the test compounds in assay uffer t a c ncentrati n f with a fina O c ncentrati n f ≤ v/v and Lucifer yellow was included as a fluorescent marker to assess monolayer integrity. Analytical standards were prepared similarly, omitting the Lucifer yellow . For apical-to-basolateral (A– B) measurements, the dosing solution was applied to the apical chamber and buffer to the basolateral side, while the configuration was reversed for basolateral-to-apical (B–A) measurements. After a 120 min incubation, samples from both compartments were collected and diluted for quantification. Permeability was assessed in duplicates, and reference […]
(§2) compounds with known characteristics were included as controls. Quantification of test and control compounds was performed by LC-MS/MS using an 8-point calibration curve under Cyprotex standard analytical conditions. The initial concentration (C0) at time zero was determined from the dosing solution, and recovery was calculated based on concentrations […]
(§3) The apparent permeability coefficient (Papp) is calculated from the equation (where dQ/dt is the drug permeation rate across the cells, C0 is the concentration in the donor compartment at time zero, and A is the area of the cell monolayer):
(§4) Efflux ratio (ER) is calculated from mean A-B and B-A data: […]
(§5) Cells were fixed in situ with cold TCA: untreated cells at the time of compound addition (Tz) and treated cells 48 h after addition of compound (Ti). Cells were washed, then su f rh damine s uti n μ at . w/v in acetic acid was added to each well and incubated for 10 minutes at room temperature. After washing again, the plates were air dried and bound stain solubilized with 10 mM Trizma base before absorbance was […]
(§6) Percentage growth (%Growth) was calculated as follows:
(§7) when Ti ≥ Tz, %Growth = Ti − Tz x 100 where Ti = absorbance from compound treated cells, Tz = absorbance from untreated cells at time zero, and C = absorbance from control (DMSO) treated cells.
(§8) HEK293T, MRC5 and LP1 cells were cultured in DMEM (Gibco 41966 -029) containing 10 % or 15 % (LP1) FBS (Gibco 10270106 or Sigma F9665), 1 % non-essential amino acids (MRC5 only, […]
(§9) cultured in RPMI 1640 (Gibco 21875-034) containing 10 % FBS and 1 % P/S. All cells were grown in a humidified incubator with 5 % CO 2 at 37 °C.

[1] = bidirectional Caco-2 permeability assay; assay type: in vitro ADME; conditions: human; for Papp A→B at 120 min / Papp B→A at 120 min / efflux ratio at 120 min: Caco-2; for Papp A→B at 120 min: Direction: A-B (apical-to-basolateral); for Papp A→B at 120 min / Papp B→A at 120 min: n=2; for Papp B→A at 120 min: Direction: B-A (basolateral-to-apical); for efflux ratio at 120 min: from mean A-B and B-A data, read-out: Efflux Ratio (Papp(B-A)/Papp(A-B))
Method: as §1, §2, §3, §4, §5, §6, §7, §8, §9

[2] = system: myc expression in LP1 cells; experiment: myc mRNA expression by RT-qPCR; assay type: cell-based; conditions: 4 h treatment of LP1 cells with 1 μM compound
Method: For myc expression, 1x10^6 LP1 cells were plated the day prior to a 4 h treatment with compounds at a final DMSO concentration of 0.1 %. […]
In all cases, total
RNA was extracted using the NucleoSpin® RNA kit (Machery -Nagel) and used for cDNA synthesis with the High -Capacity cDNA Reverse Transcription kit (Applied Biosystems). RT-qPCR reactions were performed using PowerSYBR™ green PCR Master Mix (Applied Biosystems) and a LightCycler® 480 (Roche). cDNA was denatured for 10 min at 95 °C followed by 40 cycles of 15 s at 95 °C and 1 min at 60 °C. Cp values were determined as the maximum of the second derivative and target gene expression was compared to that of hprt from the same sample using the 2-ΔCp method. Gene expression was then normalized to the average of the control samples from the same day, or all biological replicates. […]

[3] = target: T1, CBP-BRD (ePL-CBP-BRD in HEK293T cells) (Homo sapiens, UniProt Q92793); experiment: CBP-BRD InCELL Pulse cellular target engagement; assay type: cell-based; conditions: 1 h compound treatment of HEK293T cells transiently transfected with ePL-CBP-BRD
T1 construct: (residues 1083-1197) was cloned into the pICP-ePL-C vector; expressed in transfected cells; host or cells: HEK293T, transient transfection (vector pICP-ePL-C, DiscoverX 94-4007S)
T1 sequence (Q92793 1083-1197): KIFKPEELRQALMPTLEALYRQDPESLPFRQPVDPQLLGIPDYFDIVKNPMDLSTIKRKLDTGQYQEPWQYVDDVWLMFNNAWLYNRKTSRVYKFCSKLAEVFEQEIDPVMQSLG
Method: The CBP-BRD (residues 1083-1197) was cloned into the pICP-ePL-C vector (DiscoverX, 94-4007S) between the EcoRI and XhoI restriction sites using the hexahistidine-CREBBP plasmid as a template. 5x10^5 HEK293T cells were plated on a 6 well plate the day prior to transfection with 1.5 μg ePL-CBP-BRD plasmid using 5 μl FugeneHD (Promega E2311) in 500 μl optiMEM® (Gibco, 31985062) . Proteins were allowed to express for 20 h before cells were trypsinized, washed and resuspended in low -serum medium (DMEM with 5 % FBS). Compounds were serially diluted in DMSO at 100x, pre-diluted to 5x in complete medium (DMEM with 10 % FBS and 1 % P/S), then added to a suspension of 5x10^3 cells, giving a final DMSO concentration of 1 %. Treated cells were incubated for 1 h at 37 °C in an incubator, followed by a heat shock for 3 min at 45 °C and recovery for 3 min at 22 °C using a thermocycler with a ramp rate of 1 °C/s (SimpliAmp, Thermo Fisher). Stab ilized ePL tag was quantified using the InCELL detecti n Kit isc verX as per the manufacturer’s pr t c usin the -10 working detection solution and a 2 h incubation before reading luminescence with a SpectraMax M5 plate reader (Molecular devices). […]

[4] = Direction: A-B (apical-to-basolateral)
[5] = Direction: B-A (basolateral-to-apical)
[6] = Caco-2, Direction: A-B (apical-to-basolateral)
[7] = Caco-2, Direction: B-A (basolateral-to-apical)

Papp Replicate 1 (Caco-2 cells; [4])	Papp Replicate 2 (Caco-2 cells; [4])	Papp Replicate 1 (Caco-2 cells; [5])	Papp Replicate 2 (Caco-2 cells; [5])	membrane permeability (Caco-2), in words (Caco-2 cells)	recovery at 120 min [1, 6] [%]	recovery at 120 min [1, 7] [%]	Papp A→B at 120 min [1] [×10⁻⁶ cm/s]	Papp B→A at 120 min [1] [×10⁻⁶ cm/s]	efflux ratio at 120 min [1]	cellular binding to CBP-BRD (InCELL Pulse) [3]	Compound	myc mRNA expression [2]
0.0348 10-6 cms-1	0.0401 10-6 cms-1	11.6 10-6 cms-1	11.5 10-6 cms-1	very low membrane permeability	80	87.3	0.0375	11.5	307	no ligand engagement in cellulo	CC(=O)Nc1cc(NC(=O)c2ccco2)cc(C(=O)Nc2cccc3nnc(C)cc23)c1 [Compound 1]	not observed
0.57 10-6 cms-1	0.677 10-6 cms-1	34.2 10-6 cms-1	30.9 10-6 cms-1	improved cellular permeability	68.2	78	0.623	32.5	52.2	able to engage the target very similarly	Cc1cc2c(NC(=O)c3cc(NC(=O)[C@H]4CCCO4)cc(-c4ccn(C)n4)c3)cccc2nn1 [Compound 5]	significantly decreased the expression level of myc

Compound	Papp Replicate 1 (Caco-2 cells; [4])	Papp Replicate 2 (Caco-2 cells; [4])	Papp Replicate 1 (Caco-2 cells; [5])	Papp Replicate 2 (Caco-2 cells; [5])	membrane permeability (Caco-2), in words (Caco-2 cells)	recovery at 120 min [1, 6] [%]	recovery at 120 min [1, 7] [%]	Papp A→B at 120 min [1] [×10⁻⁶ cm/s]	Papp B→A at 120 min [1] [×10⁻⁶ cm/s]	efflux ratio at 120 min [1]	cellular binding to CBP-BRD (InCELL Pulse) [3]	myc mRNA expression [2]
Cc1cc2c(NC(=O)c3cc(NC(=O)c4ccco4)cc(-c4ccn(C)n4)c3)cccc2nn1 [Compound 2]	0.565 10-6 cms-1	0.533 10-6 cms-1	28.9 10-6 cms-1	29.2 10-6 cms-1	improved cellular permeability	47	61.8	0.549	29	52.9	significant improvement in terms of cellular target engagement	significantly decrease myc expression levels

— publication PMC12188386, “Selective CBP/EP300 Bromodomain Inhibitors: Novel Epigenetic Tools to Counter TNF-α-Driven Inflammation” (JACS Au, 2025)
